BindingDB's records for doi:10.1016/j.bioorg.2015.01.005 (Kurukshetra University, 2015)

Legend:
[1] = molecular target: Cathepsin B (Capra hircus, UniProt H9B8T9); assay: Cathepsin Ezyme Assay; conditions: pH 6
Method: (§1) Cathepsin B and H were first activated in the presence of thiol activators at pH 6.0 and pH 7.0, respectively. Then, 15 µL of the enzyme solution was mixed with 940 µL of 0.1 M sodium phosphate buffer containing 1 mM EDTA separately, for 10 min at 37 °C. […] After 30 min, 25 µL of 100 mM substance stock solution was added to start the reaction.

[2] = molecular target: T1, Cathepsin H (Capra hircus, UniProt A0A060INS8); assay: Cathepsin Ezyme Assay; conditions: pH 6
T1 sequence (A0A060INS8 whole entry): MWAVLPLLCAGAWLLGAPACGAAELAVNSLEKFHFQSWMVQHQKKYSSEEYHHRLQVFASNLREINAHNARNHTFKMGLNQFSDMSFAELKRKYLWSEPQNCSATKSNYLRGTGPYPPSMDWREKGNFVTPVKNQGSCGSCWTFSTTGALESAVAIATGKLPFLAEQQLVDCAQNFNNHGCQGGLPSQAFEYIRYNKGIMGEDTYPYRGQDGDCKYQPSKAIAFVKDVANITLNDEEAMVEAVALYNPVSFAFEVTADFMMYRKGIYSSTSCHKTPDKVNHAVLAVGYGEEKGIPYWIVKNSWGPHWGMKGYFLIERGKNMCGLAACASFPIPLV
Method: as §1

Row | Ki [1] | Ki [2] | SMILES
1 | 52.6 µM | 2.5 µM | Cc1ccc(C2NC(=O)c3ccccc3N2)cc1 (centres undefined) [2-(4-Methylphenyl)-2,3-dihydroquinazolin-4(1H)-one (1c)]
2 | 32.5 µM | 52.6 µM | O=C1NC(c2ccc(Br)cc2)Nc2ccccc21 (centres undefined)
3 | 10.6 µM | 18.6 µM | CN(C)c1ccc(C2NC(=O)c3ccccc3N2)cc1 (centres undefined) [2-(4-(Dimethylamino)phenyl)-2,3-dihydroquinazolin-4(1H)-one (1h)]
4 | 1.57 µM | 10.4 µM | O=C1NC(c2ccc([N+](=O)[O-])cc2)Nc2ccccc21 (centres undefined) [2-(4-Nitrophenyl)-2,3-dihydroquinazolin-4(1H)-one (1b)]
5 | 0.041 µM | 23.3 µM | O=C1NC(c2ccc(Cl)cc2)Nc2ccccc21 (centres undefined) [2-(4-Chlorophenyl)-2,3-dihydroquinazolin-4(1H)-one (1e)]
6 | 0.0064 µM | 8.18 µM | O=C1NC(c2ccc(F)cc2)Nc2ccccc21 (centres undefined) [2-(4-Fluorophenyl)-2,3-dihydroquinazolin-4(1H)-one (1f)]

Row | SMILES | Ki [1] | Ki [2]
7 | COc1ccc(C2NC(=O)c3ccccc3N2)cc1 (centres undefined) [2-(4-Methoxyphenyl)-2,3-dihydroquinazolin-4(1H)-one (1d)] | 2.81 µM | 56.8 µM
